Test results reported in patent US20130337564A1, “Treatment of Pluripotent Cells” (Janssen Biotech, Inc., priority 2012, published 2013).

Experiments:
Type in all cases: cell-based
[1] = test system: human embryonic stem cells (H9 line); assay: High content screening assay: cell number (proliferative response)
Outline: (§1)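 H9 hESCs on MATRIGEL treated days 1-2 with 10 μM compound in DMEM:F12, 0.5% FCS, 100 ng/ml activin A; days 3-4 with 2% FCS plus activin A without compound. Fixed cells immunostained for Sox17 or HNF-3beta with Draq5 nuclear counterstain. Cell number and staining intensity quantified by high-content imaging, 12 fields/well.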

[2] = test system: Sox17 expression in human embryonic stem cells (H9 line); assay: High content screening assay: Sox17 protein expression (differentiation)
Outline: as §1

[3] = test system: human embryonic stem cells (H9 or H1 lines); assay: Plate reader (MTS) proliferation assay; conditions: for Average (of Raw Data): plate reader raw signal, mean of replicate wells, proliferation of human embryonic stem cells; for activity at 10 µM: Homo sapiens, Embryonic stem cell, 96 h, 10 μM test compound with 100 ng/ml activin A on days 1-2, MTS OD490 on day 4, vs Activin A/Wnt3a positive control, strong and moderate hits; for Average: average of replicate raw data
Outline: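 H9 or H1 cells on Matrigel, washed, then given DMEM:F12 with 0.5% FCS, 100 ng/ml activin A and 10 μM compound (days 1–2), then 2% FCS plus activin A (days 3–4). MTS added day 4, OD490 read after 1.5–4 h at 37 °C; triplicates as percent of activin A/Wnt3a control.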

[4] = test system: HNF-3beta expression in human embryonic stem cells (H9 line); assay: High content screening assay: HNF-3beta protein expression (differentiation); conditions: total intensity
Outline: as §1

[5] = cell number in the wells analysed for HNF-3b expression
[6] = cell number in the wells analysed for SOX-17 expression

SMILES | Proliferative Response Total cells [1, 5] | Proliferative Response Total cells [1, 6] | SOX-17 Expression Total Intensity [2] | Average (of Raw Data) [3] | HNF-3b Expression Total Intensity [4] | activity at 10 µM [3] | Average [3] | fold induction at 10 µM ([1]; Homo sapiens, Embryonic stem cell, 10 μM test compound with 100 ng/ml activin A on days 1-2, H9, total cell number by IN Cell Analyzer, strong and moderate hits, read-out: Proliferative Response, Fold over Wnt 3a/AA control) | fold induction at 10 µM ([2]; Homo sapiens, Embryonic stem cell, 10 μM test compound with 100 ng/ml activin A on days 1-2, H9, total intensity by IN Cell Analyzer, strong and moderate hits, read-out: SOX17 Expression, Fold over Wnt 3a/AA control)
COc1ccccc1C1=C(c2cn(CCCNC(=O)OC(C)(C)C)c3ncccc23)C(=O)NC1=O [Compound 26, 1,1-Dimethylethyl [3-(3-{4-[2-(methyloxy)phenyl]-2,5-dioxo-2,5-dihydro-1H-pyrrol-3-yl}-1H-pyrrolo[2,3-b]pyridin-1-yl)propyl]carbamate] | 136 | 109 | 15714170 | 0.3611 | 15725984 | – | – | – | –
COc1ccccc1C1=C(c2cn(CCCNC(C)=O)c3ncccc23)C(=O)NC1=O [Compound 27, N-[3-(3-{4-[2-(Methyloxy)phenyl]-2,5-dioxo-2,5-dihydro-1H-pyrrol-3-yl}-1H-pyrrolo[2,3-b]pyridin-1-yl)propyl]acetamide] | 5 | 5 | 125443 | 0.1152 | 0 | – | – | – | –
O=C1NC(=O)C(c2cn(CCOCCOCCNC3CCCc4ccccc43)c3ccccc23)=C1c1cn(CCNC2CCCc3ccccc32)c2ccccc12 (stereo not drawn) [Compound 144, 3-{1-[2-(1,2,3,4-Tetrahydronaphthalen-1-ylamino)ethyl]-1H-indol-3-yl}-4-(1-{2-[(2-{[2-(1,2,3,4-tetrahydronaphthalen-1-ylamino)ethyl]oxy}ethyl)oxy]ethyl}-1H-indol-3-yl)-1H-pyrrole-2,5-dione] | 6833 | 7990 | 339840000 | – | 231745000 | 84% | 1.2160 | – | –
CN(C)c1cccc(-n2cc(C3=C(c4nn(CCO)c5ccccc45)C(=O)NC3=O)c3ccccc32)c1 [Compound 145, 3-{1-[3-(Dimethylamino)phenyl]-1H-indol-3-yl}-4-[1-(2-hydroxyethyl)-1H-indazol-3-yl]-1H-pyrrole-2,5-dione] | 2907 | 4914 | 238555000 | – | 82808745 | 61.1% | 0.9191 | – | –
CN(C)c1ccc(-n2cc(C3=C(c4nn(CCO)c5ccccc45)C(=O)NC3=O)c3cc(Cl)ccc32)cn1 [Compound 148, 3-{5-Chloro-1-[6-(dimethylamino)pyridin-3-yl]-1H-indol-3-yl}-4-[1-(2-hydroxyethyl)-1H-indazol-3-yl]-1H-pyrrole-2,5-dione] | 6536 | 12243 | 699160000 | – | 248855000 | 106% | 1.4937 | 0.799 | 0.719
COC(=O)c1cncc(-n2cc(C3=C(c4nn(CCO)c5ccccc45)C(=O)NC3=O)c3cc(Cl)ccc32)c1 [Compound 150, Methyl 5-(5-chloro-3-{4-[1-(2-hydroxyethyl)-1H-indazol-3-yl]-2,5-dioxo-2,5-dihydro-1H-pyrrol-3-yl}-1H-indol-1-yl)pyridine-3-carboxylate] | 6992 | 7958 | 351070000 | – | 288075000 | 63.3% | 0.9475 | – | –
